test: not given; type: physicochemical; settings: Table 2; 10 mM, pH 7.3-7.4, tsat = 3 sec, ω1 = 3.6 μT, 37° C.

Row | Compound | Signal (ppm)
1 | O=C(O)c1cc([N+](=O)[O-])ccc1O [Compound 14, 5-nitrosalicylic acid] | 10.3 ppm
2 | O=C(O)c1cc([N+](=O)[O-])cc([N+](=O)[O-])c1O [Compound 15, 3,5-Dinitrosalicylic acid] | None
3 | O=C(O)c1ccc(O)cc1O [Compound 16] | 9.5 ppm
4 | Nc1ccc(C(=O)O)c(O)c1 [Compound 17] | 9.5 ppm
5 | O=C(O)c1ccc(C(=O)O)c(O)c1 [Compound 18] | 9.3 ppm
6 | O=C(O)c1ccc([N+](=O)[O-])cc1O [Compound 19, 2-hydroxy-4-nitrobenzoic acid] | 9.5 ppm

same assay, conditions: Table 3; 10 mM, pH 7.3-7.4, tsat = 3 sec, ω1 = 3.6 μT, 37° C.

Row | Compound | Signal (ppm)
7 | O=C(O)c1c(O)ccc2ccccc12 [Compound 20, 2-hydroxy-l-naphthoic acid] | 9.5 ppm
8 | COc1cccc(O)c1C(=O)O [Compound 21, 6-methoxysalicylic acid] | 9.0 ppm
9 | O=C(O)c1c(O)cccc1O [Compound 22, 2,6-dihydroxybenzoic acid] | 9.3 ppm

same assay, conditions: Table 4; 10 mM, pH 7.3-7.4, tsat = 3 sec, ω1 = 3.6 μT, 37° C.

Row | Compound | Signal (ppm)
10 | Cc1cccc(C(=O)O)c1O [Compound 23, 3-Methylsalicylic acid] | 9.5 ppm
11 | CC(C)(C)c1cc(C(=O)O)c(O)c(C(C)(C)C)c1 [Compound 24, 3,5-di-tert-butylsalicylic acid] | 9.3 ppm
12 | O=C(O)c1cccc(F)c1O [Compound 25] | 9.5 ppm
13 | O=C(O)c1cc(Cl)cc(Cl)c1O [Compound 26] | 10.3 ppm
14 | O=C(O)c1cc(Br)cc(Br)c1O [Compound 27, 3,5-Dibromosalicylic acid] | 10.5 ppm
15 | O=C(O)c1cc(I)cc(I)c1O [Compound 28] | 10.8 ppm
16 | O=C(O)c1ccc2ccccc2c1O [Compound 29, 1-Hydroxy-2-naphthoic acid] | 10.5 ppm
17 | O=C(O)c1ccc2cccnc2c1O [Compound 30, 8-hydroxy-7-quinolinecarboxylic acid] | 10.3 ppm
18 | O=C(O)c1cccc(O)c1O [Compound 31, 2,3-dihydroxybenzoic acid] | 9.0 ppm
19 | COc1cccc(C(=O)O)c1O [Compound 32, 3-methoxysalicylic acid] | 9.3 ppm
20 | O=C(O)c1cccc(C(=O)O)c1O [Compound 35, 2-hydroxyisophthalic acid] | 9.5 ppm
21 | O=C(O)c1cccc([N+](=O)[O-])c1O [Compound 36, 3-nitrosalicylic acid] | 12.0 ppm

test: not given; settings: Table 2; 10 mM, pH 7.3-7.4, 37° C.

Row | Compound | kex
22 | O=C(O)c1ccc(O)cc1O [Compound 16] | 460 s⁻¹
23 | Nc1ccc(C(=O)O)c(O)c1 [Compound 17] | 384 s⁻¹
24 | O=C(O)c1ccc(C(=O)O)c(O)c1 [Compound 18] | 420 s⁻¹
25 | O=C(O)c1ccc([N+](=O)[O-])cc1O [Compound 19, 2-hydroxy-4-nitrobenzoic acid] | 1500 s⁻¹

same assay, conditions: Table 3; 10 mM, pH 7.3-7.4, 37° C.

Row | Compound | kex
26 | O=C(O)c1c(O)ccc2ccccc12 [Compound 20, 2-hydroxy-l-naphthoic acid] | 4400 s⁻¹
27 | COc1cccc(O)c1C(=O)O [Compound 21, 6-methoxysalicylic acid] | 4900 s⁻¹
28 | O=C(O)c1c(O)cccc1O [Compound 22, 2,6-dihydroxybenzoic acid] | 30 s⁻¹

same assay, conditions: Table 4; 10 mM, pH 7.3-7.4, 37° C.

Row | Compound | kex
29 | Cc1cccc(C(=O)O)c1O [Compound 23, 3-Methylsalicylic acid] | 250 s⁻¹
30 | CC(C)(C)c1cc(C(=O)O)c(O)c(C(C)(C)C)c1 [Compound 24, 3,5-di-tert-butylsalicylic acid] | 22 s⁻¹
31 | O=C(O)c1cccc(F)c1O [Compound 25] | 750 s⁻¹
32 | O=C(O)c1cc(Cl)cc(Cl)c1O [Compound 26] | 1070 s⁻¹
33 | O=C(O)c1cc(Br)cc(Br)c1O [Compound 27, 3,5-Dibromosalicylic acid] | 580 s⁻¹
34 | O=C(O)c1cc(I)cc(I)c1O [Compound 28] | 310 s⁻¹
35 | O=C(O)c1ccc2ccccc2c1O [Compound 29, 1-Hydroxy-2-naphthoic acid] | 220 s⁻¹
36 | COc1cccc(C(=O)O)c1O [Compound 32, 3-methoxysalicylic acid] | 480 s⁻¹

test: Screening of beta-hydroxy carboxylate analogs for CEST contrast (Table 4A); settings: Concentration 5 mM

Row | Compound | Signal (ppm)
37 | Cc1ccc(Cl)c(Nc2ccccc2C(=O)O)c1Cl [Entry 51] | 4.8 ppm
38 | Cc1cccc(Nc2ccccc2C(=O)O)c1C [Entry 52] | None
39 | Cc1cccc(Nc2ccccc2C(=O)O)c1Cl [Entry 53] | None

same assay, conditions: Concentration 10 mM

Row | Compound | Signal (ppm) | kex
40 | O=C(O)c1ccccc1O [Entry 1] | 9.3 ppm | 400 s⁻¹
41 | O=C(O)CNC(=O)c1ccccc1O [Entry 3] | None | –
42 | COC(=O)c1ccccc1O [Entry 4] | None | –
43 | COC(=O)c1cc([N+](=O)[O-])ccc1O [Entry 5] | None | –
44 | O=[N+]([O-])c1ccccc1O [Entry 6] | None | –
45 | COC(=O)c1ccc(O)c([N+](=O)[O-])c1 [Entry 7] | None | –
46 | [O-][n+]1cccc2cccc(O)c21 [Entry 8] | 9.5 ppm | 32 s⁻¹
47 | O=Cc1cc(C(=O)O)ccc1O [Entry 9] | None | –
48 | O/N=C/c1ccccc1O [Entry 10] | None | –
49 | O=C(O)c1ccc(O)c(/C=N/CC/N=C/c2cc(C(=O)O)ccc2O)c1 [Entry 11] | 7.8 ppm | 15400 s⁻¹
50 | Oc1ccccc1-c1nnn[nH]1 [Entry 13] | None | –
51 | NC(Cc1cc(I)c(O)c(I)c1)C(=O)O (stereo not drawn) [Entry 14] | None | –
52 | O=C(O)c1cc(O)ccc1O [Entry 15] | 8.5 ppm | 400 s⁻¹
53 | Nc1ccc(O)c(C(=O)O)c1 [Entry 16] | 8.5 ppm | 380 s⁻¹
54 | O=C(O)c1cc(Cl)ccc1O [Entry 17] | 9.0 ppm | 290 s⁻¹
55 | O=C(O)c1cc([N+](=O)[O-])ccc1O [Entry 19] | 10.3 ppm | 5660 s⁻¹
56 | O=C(O)c1cc([N+](=O)[O-])cc([N+](=O)[O-])c1O [Entry 20] | None | –
57 | O=C(O)c1ccc(O)cc1O [Entry 21] | 9.5 ppm | 462 s⁻¹
58 | Nc1ccc(C(=O)O)c(O)c1 [Entry 22] | 9.5 ppm | 384 s⁻¹
59 | O=C(O)c1ccc(C(=O)O)c(O)c1 [Entry 23] | 9.3 ppm | 420 s⁻¹
60 | O=C(O)c1ccc([N+](=O)[O-])cc1O [Entry 24] | 9.5 ppm | 1500 s⁻¹
61 | O=C(O)c1c(O)ccc2ccccc12 [Entry 25] | 9.5 ppm | 4400 s⁻¹
62 | COc1cccc(O)c1C(=O)O [Entry 26] | 9.0 ppm | 4900 s⁻¹
63 | O=C(O)c1c(O)cccc1O [Entry 27] | 9.3 ppm | 30 s⁻¹

Row | Compound | Signal (ppm) | kex
64 | Cc1cccc(C(=O)O)c1O [Entry 28] | 9.5 ppm | 250 s⁻¹
65 | O=C(O)c1cccc(F)c1O [Entry 30] | 9.5 ppm | 750 s⁻¹
66 | O=C(O)c1cc(Cl)cc(Cl)c1O [Entry 31] | 10.3 ppm | 1070 s⁻¹
67 | O=C(O)c1cc(Br)cc(Br)c1O [Entry 32] | 10.5 ppm | 580 s⁻¹
68 | O=C(O)c1cc(I)cc(I)c1O [Entry 33] | 10.8 ppm | 310 s⁻¹
69 | O=C(O)c1ccc2ccccc2c1O [Entry 34] | 10.5 ppm | 220 s⁻¹
70 | O=C(O)c1ccc2cccnc2c1O [Entry 35] | 10.3 ppm | 1530 s⁻¹
71 | O=C(O)c1cccc(O)c1O [Entry 36] | 9.0 ppm | 2000 s⁻¹
72 | COc1cccc(C(=O)O)c1O [Entry 37] | 9.3 ppm | 480 s⁻¹
73 | Nc1cccc(C(=O)O)c1O [Entry 38] | 9.0 ppm | 410 s⁻¹
74 | O=Cc1cccc(C(=O)O)c1O [Entry 39] | 10.5 ppm | 510 s⁻¹
75 | O=C(O)c1cccc(C(=O)O)c1O [Entry 40] | 9.5 ppm | 6680 s⁻¹
76 | O=C(O)c1cccc([N+](=O)[O-])c1O [Entry 41] | 12.0 ppm | 1430 s⁻¹
77 | O=C(O)c1cc(O)c(C(=O)O)cc1O [Entry 42] | 8.3 ppm | 990 s⁻¹
78 | O=C(O)c1cc(C(=O)O)c(O)cc1O [Entry 43] | 9.8 ppm | 460 s⁻¹
79 | O=C(O)c1cc2ccccc2c(Cc2c(O)c(C(=O)O)cc3ccccc23)c1O [Entry 44] | 9.5 ppm | 130 s⁻¹
80 | O=C(O)c1ccccc1Nc1ccccc1 [Entry 49] | 4.8 ppm | 674 s⁻¹
81 | O=C(O)c1ccccc1Nc1cccc(C(F)(F)F)c1 [Entry 50] | 4.8 ppm | 1000 s⁻¹
82 | O=C(O)c1cccnc1Nc1cccc(C(F)(F)F)c1 [Entry 54] | None | –
83 | O=C(O)c1ccccc1NC(=O)C(F)(F)F [Entry 57] | 9.3 ppm | 190 s⁻¹
84 | CS(=O)(=O)Nc1ccccc1C(=O)O [Entry 58] | 7.3 ppm | 470 s⁻¹
85 | CS(=O)(=O)Nc1ccc(N)cc1C(=O)O [Entry 61] | 6.3 ppm | 550 s⁻¹
86 | Cc1ccc(S(=O)(=O)Nc2ccccc2C(=O)O)cc1 [Entry 62] | 7.8 ppm | 440 s⁻¹

same assay, conditions: Concentration 20 mM

Row | Compound | Signal (ppm) | kex
87 | CC(C)(C)c1cc(C(=O)O)c(O)c(C(C)(C)C)c1 [Entry 29] | 9.3 ppm | 22 s⁻¹

same assay, conditions: Concentration 25 mM

Row | Compound | Signal (ppm) | kex
88 | O=C(O)c1ccc(-c2ccc(F)cc2F)cc1O [Entry 45] | 9.3 ppm | 650 s⁻¹
89 | O=C(O)c1cc(/N=N\c2ccc(S(=O)(=O)Nc3ccccn3)cc2)ccc1O [Entry 46] | 9.6 ppm | 1000 s⁻¹
90 | Nc1ccccc1C(=O)O [Entry 47] | None | –
91 | CNc1ccccc1C(=O)O [Entry 48] | None | –
92 | CC(=O)Nc1ccccc1C(=O)O [Entry 55] | None | –
93 | CC(C)(C)OC(=O)Nc1ccccc1C(=O)O [Entry 56] | None | –
94 | CS(=O)(=O)Nc1ccc(Cl)cc1C(=O)O [Entry 59] | 7.3 ppm | 1000 s⁻¹
95 | Cc1ccc(NS(C)(=O)=O)c(C(=O)O)c1 [Entry 60] | 7.0 ppm | 500 s⁻¹
96 | O=C(O)c1ccccc1NS(=O)(=O)C(F)(F)F [Entry 63] | None | –
97 | O=C(O)c1ccccc1N/N=C\c1ccccc1 [Entry 64] | None | –

Source: patent US10188754B2, “Compositions and methods for chemical exchange saturation transfer (CEST) based magnetic resonance imaging (MRI)” (THE JOHNS HOPKINS UNIVERSITY, priority 2013, dated 2019)
